Test results as given in EPA's ToxRefDB 2.

Tests used:
rat [1] = settings: Sub-acute repeat dose toxicity, sprague dawley, Oral, Gavage/Intubation, dose end: 28 day, group: systemic
dog [2] = settings: Sub-acute repeat dose toxicity; beagle; Oral; Gavage/Intubation; dose end: 30 day; group: systemic; systemic / in life observation / clinical signs / emesis + systemic / clinical chemistry / [other] / [other] + systemic / clinical chemistry…
rat [3] = settings: Sub-acute repeat dose toxicity; sprague dawley; Oral; Gavage/Intubation; dose end: 10 day; group: systemic; systemic / clinical chemistry / sorbitol dehydrogenase / sorbitol dehydrogenase
dog [4] = settings: Sub-acute repeat dose toxicity, beagle, Oral, Gavage/Intubation, dose end: 10 day, group: systemic
rat [5] = settings: Combined chronic toxicity/carcinogenicity; fischer; Oral; Feed; dose end: 25 month; group: systemic; systemic / clinical chemistry / creatinine / creatinine + systemic / clinical chemistry / gamma glutamyl transpeptides (gtp) / gamma …
rat [6] = settings: Subchronic oral toxicity in rodents, sprague dawley, Feed, dose end: 90 day, group: systemic, systemic / organ weight / liver / absolute + systemic / organ weight / liver / relative to body weight + systemic / organ weight / thyroid …
mouse = settings: Subchronic oral toxicity in rodents, cd1, Feed, dose end: 13 week
rabbit = settings: Prenatal developmental toxicity study, dutch, Oral, Gavage/Intubation, dose end: 27 GD
rat [7] = settings: Combined chronic toxicity/carcinogenicity, sprague dawley, Oral, Feed, dose end: 26 month, group: systemic
rat [8] = settings: Subchronic oral toxicity in rodents, fischer, Feed, dose end: 13 week, group: systemic, systemic / clinical chemistry / cholesterol / cholesterol + systemic / organ weight / kidney / relative to body weight + systemic / organ …
dog [9] = settings: Chronic toxicity; beagle; Oral; Feed; dose end: 52 week; group: systemic; systemic / clinical chemistry / alkaline phosphatase (alp/alk) / alkaline phosphatase (alp/alk) + systemic / organ weight / liver / absolute…
[10] = systemic / clinical chemistry / cholesterol / cholesterol + systemic / clinical chemistry / sorbitol dehydrogenase / sorbitol dehydrogenase…
[11] = systemic / organ weight / liver / absolute
[12] = systemic / in life observation / clinical signs / arrhythmia
[13] = systemic / in life observation / clinical signs / arrhythmia + systemic / in life observation / clinical signs / convulsions
[14] = group: cholinesterase, cholinesterase / cholinesterase / cholinesterase / brain cholinesterase (che)
[15] = group: systemic, systemic / organ weight / liver / absolute + systemic / organ weight / liver / relative to body weight + systemic / organ weight / liver / …
[16] = group: developmental, systemic / in life observation / body weight / fetal weight
[17] = group: maternal, reproductive / reproductive performance / aborted / aborted + systemic / in life observation / body weight / body weight gain + systemic / …
[18] = systemic / pathology microscopic / kidney / nephropathy + systemic / pathology microscopic / liver / degeneration
[19] = systemic / pathology microscopic / kidney / nephropathy + systemic / pathology microscopic / liver / degeneration + systemic / pathology …

SMILES: Cc1nc(C)nc(N2C[C@@H](C)N(c3ccnc([C@@H](C)O)n3)[C@@H](C)C2)n1
- LOAEL (rat [1]; [10]): > 20 mg/kg/day
- NOAEL (rat [1]; [10]): ≥ 20 mg/kg/day
- LEL (rat [1]; [11]): 2 mg/kg/day
- NEL (rat [1]; [11]): < 2 mg/kg/day
- LEL (dog [2]): 6 mg/kg/day
- LOAEL (dog [2]): > 6 mg/kg/day
- NEL (dog [2]): < 6 mg/kg/day
- NOAEL (dog [2]): ≥ 6 mg/kg/day
- LEL (rat [3]): 1 mg/kg/day
- LOAEL (rat [3]): > 10 mg/kg/day
- NEL (rat [3]): < 1 mg/kg/day
- NOAEL (rat [3]): ≥ 10 mg/kg/day
- LEL (dog [4]; [12]): 1 mg/kg/day
- NEL (dog [4]; [12]): < 1 mg/kg/day
- LOAEL (dog [4]; [13]): > 6 mg/kg/day
- NOAEL (dog [4]; [13]): ≥ 6 mg/kg/day

SMILES: CCCCOCN(C(=O)CCl)c1c(CC)cccc1CC [Butachlor]
- LEL (rat [5]): 37.1 mg/kg/day
- LOAEL (rat [5]): 37.1 mg/kg/day
- NEL (rat [5]): 3.65 mg/kg/day
- NOAEL (rat [5]): 3.65 mg/kg/day
- LEL (rat [6]): 50 mg/kg/day
- LOAEL (rat [6]): 50 mg/kg/day
- NEL (rat [6]): < 50 mg/kg/day
- NOAEL (rat [6]): < 50 mg/kg/day
- LEL (mouse; [14]): 150 mg/kg/day
- LOAEL (mouse; [14]): > 900 mg/kg/day
- NEL (mouse; [14]): < 150 mg/kg/day
- NOAEL (mouse; [14]): ≥ 900 mg/kg/day
- LEL (mouse; [15]): 150 mg/kg/day
- LOAEL (mouse; [15]): 150 mg/kg/day
- NEL (mouse; [15]): < 150 mg/kg/day
- NOAEL (mouse; [15]): < 150 mg/kg/day
- LEL (rabbit; [16]): 150 mg/kg/day
- LOAEL (rabbit; [16]): 150 mg/kg/day
- NEL (rabbit; [16]): 50 mg/kg/day
- NOAEL (rabbit; [16]): 50 mg/kg/day
- LEL (rabbit; [17]): 150 mg/kg/day
- LOAEL (rabbit; [17]): 150 mg/kg/day
- NEL (rabbit; [17]): 50 mg/kg/day
- NOAEL (rabbit; [17]): 50 mg/kg/day
- LOAEL (rat [7]; [18]): 4.5 mg/kg/day
- NOAEL (rat [7]; [18]): < 4.5 mg/kg/day
- LEL (rat [7]; [19]): 4.5 mg/kg/day
- NEL (rat [7]; [19]): < 4.5 mg/kg/day
- LEL (rat [8]): 58.7 mg/kg/day
- LOAEL (rat [8]): 58.7 mg/kg/day
- NEL (rat [8]): 17.5 mg/kg/day
- NOAEL (rat [8]): 17.5 mg/kg/day
- LEL (dog [9]): 25 mg/kg/day
- LOAEL (dog [9]): 25 mg/kg/day
- NEL (dog [9]): 5 mg/kg/day
- NOAEL (dog [9]): 5 mg/kg/day
